Counter-ions that a name gives are not always drawn. Like-named read-outs stand apart in the source and are kept apart here.
What was measured:
KHT murine fibrosarcoma = experiment: Tumor growth ratio (time to grow to 4x initial volume, treated/untreated), KHT fibrosarcoma in C3H mice; format: in vivo, mouse (C3H)
Experimental: (§1) The transplantable experimental murine fibrosarcomas RIF-1 or KHT were grown intradermally (2×10^5 cells injected i.d.) in the flank of 5 month old male C3H mice. When tumors reached a volume of ~100 mm^3 they were used for the studies. The cytotoxic drugs under study (all were formulated for human clinical use) were made up just prior to use in their appropriate aqueous vehicle except those experimental groups in which epinephrine-HCl (1 mg/ml) was added to the aqueous drug (usually ~10% of total volume). Drug concentrations were: adriamycin, 3.75 mg/ml: BCNU, 10 mg/ml: vinblastine, 1.2 mg/ml; and 5-fluorouracil, 30 mg/ml. The drugs were administered intraperitoneally (i.p.) or intratumorally (i.t.) in an injection volume of 0.1 ml. The tumors of the treated mice as well as untreated control tumors were measured three times per week by vernier calipers and their volumes were calculated by the formula: […]
(§2) where D1 -D3 are tumor diameters in mm. The time (days) for the tumors to grow to four times their original experimental volume was used as a parameter of treatment effectiveness.

[1] = test system: RIF-1 murine fibrosarcoma
Experimental: The transplantable experimental murine fibrosarcomas RIF-1 or KHT were grown intradermally (2×10^5 cells injected i.d.) in the flank of 5 month old male C3H mice. When tumors reached a volume of ~100 mm^3 they were used for the studies. […] Drug concentrations were: adriamycin, 3.75 mg/ml: BCNU, 10 mg/ml: vinblastine, 1.2 mg/ml; and 5-fluorouracil, 30 mg/ml. The drugs were administered intraperitoneally (i.p.) or intratumorally (i.t.) in an injection volume of 0.1 ml. The tumors of the treated mice as well as untreated control tumors were measured three times per week by vernier calipers and their volumes were calculated by the formula:
*This ratio indicated the time it would take a treated tumor to grow to
4× its initial size, divided by the time it would take an untreated
tumor to grow to 4× its initial size.

[2] = test system: murine fibrosarcomas RIF-1 or KHT; settings: epinephrine 1 mg/kg alone
Experimental: as §1, §2

[3] = 2 mg/kg BW i.t., Epi 1 mg/kg where combined

CC[C@]1(O)C[C@@H]2CN(CCc3c([nH]c4ccccc34)[C@@](C(=O)OC)(c3cc4c(cc3OC)N(C)[C@H]3[C@@](O)(C(=O)OC)[C@H](OC(C)=O)[C@]5(CC)C=CCN6CC[C@]43[C@@H]65)C2)C1 [Vinblastine, vinblastine sulfate]
Tumor Growth Ratio (KHT murine fibrosarcoma; 2 mg/kg BW i.p.): 1.16
Tumor Growth Ratio (KHT murine fibrosarcoma; [3]): 1.76
Tumor Growth Ratio ([1]; 2 mg/kg BW i.p.): 1.12
Tumor Growth Ratio [1, 3]: 3.01

CNC[C@H](O)c1ccc(O)c(O)c1 [Epinephrine, epinephrine]
chemotherapeutic effect when used alone [2]: not chemotherapeutic when used alone

COc1cccc2c1C(=O)c1c(O)c3c(c(O)c1C2=O)C[C@@](O)(C(=O)CO)C[C@@H]3O[C@H]1C[C@H](N)[C@H](O)[C@H](C)O1 [Adriamycin, doxorubicin hydrochloride]
Tumor Growth Ratio ([1]; 15 mg/kg BW i.p.): 1.63
Tumor Growth Ratio ([1]; 15 mg/kg BW i.t., Epi 1 mg/kg where combined): 3.04

O=NN(CCCl)C(=O)NCCCl [BCNU (carmustine), carmustine]
Tumor Growth Ratio (KHT murine fibrosarcoma; 40 mg/kg BW i.t., Epi 1 mg/kg where combined): 2.08

O=c1[nH]cc(F)c(=O)[nH]1 [5-Fluorouracil, 5-fluorouracil]
Tumor Growth Ratio ([1]; 100 mg/kg BW i.p.): 1.20
Tumor Growth Ratio ([1]; 100 mg/kg BW i.t., Epi 1 mg/kg where combined): 1.30

Source: patent US4978332A, “Treatments employing vasoconstrictive substances in combination with cytotoxic agents for introduction into cellular lesion areas” (priority 1987, dated 1990)
